For nine compounds, MIC results are on record in ChEMBL document CHEMBL5500384, “New synergistic benzoquinone scaffolds as inhibitors of mycobacterial cytochrome bc1 complex to treat multi-drug resistant tuberculosis” (Eur J Med Chem, 2024).

For this experiment, the system named is Mycobacterium tuberculosis. The experiment is described as follows: Antitubercular activity against Mycobacterium tuberculosis H37Rv incubated for 5 days by microtiter plate method. To be noted: 120 h, time 5 day. Type of experiment: functional.
As usually defined, the MIC is the smallest concentration in the dilution series that meets the test's criterion for growth inhibition. For the compound `O=C1C(Cl)=C(N2C(=O)C(Cl)C2c2cccc([N+](=O)[O-])c2)C(=O)c2ccccc21` (centres undefined), the MIC was found to be 12.5 µg/mL.
Take `NNC(=O)c1ccncc1` [ISONIAZID]: the MIC is 1.82 µM.
As for `O=C1C(Cl)=C(/N=C/c2ccc([N+](=O)[O-])cc2)C(=O)c2ccccc21`, the figure is 12.5 µg/mL; as for `O=C1C(Cl)=C(/N=C/c2ccccc2)C(=O)c2ccccc21`, 12.5 µg/mL.
For `CO[C@H]1/C=C/O[C@@]2(C)Oc3c(C)c(O)c4c(O)c(c(/C=N/N5CCN(C)CC5)c(O)c4c3C2=O)NC(=O)/C(C)=C\C=C\[C@H](C)[C@H](O)[C@@H](C)[C@@H](O)[C@@H](C)[C@H](OC(C)=O)[C@@H]1C` [RIFAMPIN] the value was 0.3 µM; for `O=C1C(Cl)=C(/N=C/c2ccc(Cl)cc2)C(=O)c2ccccc21`, 6.25 µg/mL.
`O=C1C(Cl)=C(N2C(=O)C(Cl)C2c2ccccc2)C(=O)c2ccccc21` (centres undefined) had an MIC of 6.25 µg/mL.
For `O=C1C(Cl)=C(/N=C/c2ccccc2O)C(=O)c2ccccc21` the value was 12.5 µg/mL; for `CCOc1cc(/C=N/C2=C(Cl)C(=O)c3ccccc3C2=O)ccc1O`, 6.25 µg/mL.
